Literature values in patent US20100172986A1, “CONTROLLED RELEASE COMPOSITION AND PREPARATION THEREOF” (LOTUS PHARMACEUTICAL CO., LTD., priority 2006, published 2010).

Conditions: in adults

elimination half-life: six and seventeen
SMILES: CCCC(CCC)C(=O)O [valproic acid, 2-Propylpentanoic acid]
